{"source": "patent EP0958819A1", "about": "“REMEDIES/PREVENTIVES FOR ABNORMAL MOTIONS ACCOMPANYING DISORDERS IN EXTRAPYRAMIDAL SYSTEM” (Asahi Kasei Kogyo Kabushiki Kaisha, priority 1996, dated 1998)", "key": {"dystonia model": {"tested_on": "dystonia model", "assay": "Inhibitory effect against dystonia model (haloperidol infused into red nucleus)", "assay_type": "in vivo, Wistar rats", "conditions": "combined infusion of haloperidol 3 nmol and compound 0.03 nmol into red nucleus; maximum torsional angle, mean ± S.D., 12 rats; control (haloperidol 3 nmol) 24.1 ± 1.7; p<0.01", "from_the_text": "Unilateral infusion of haloperidol into red nucleus of rats results to appear continuous torsional movements of the head when the infusion side was laid down under side. This model reflects dystonia characterized by slow involuntary movement and hypermyotonia, which is one of abnormal movements accompanying disorders of extrapyramidal system. (Matsumoto, R.R. et al. Pharmacol. Biochem. Behavior.,36, 151 - 155, 1989). Evaluation of the compound of the present invention on dystonia model was performed by the following method.\nWistar rats (Japan Charles River Inc., 9 weeks old) were anesthetized by administration of pentobarbital (Somnopentil injection) 50 mg/kg intraperitoneally, and fixed the head by stereotaxic apparatus (David Coop Inc. U.S.A., David kopf). Scalp was incised and the bone of skull was exposed. Guide cannula 25G (Eicom Inc., Japan) was implanted 4.5 mm the above the left red nucleus and fixed with dental cement. After 2 - 3 days, injection cannula 27G (Eicom Inc., Japan) was inserted into the guide cannula without anesthetization. The tip of the cannula was introduced into the red nucleus below 4.5 mm of the guided cannula. […]\nRats were set into the observation cage made with transparent acrylic resin and recorded the front view image by video camera. […]"}, "[1]": {"tested_on": "involuntary head-movements induced by IPDN", "assay": "Antagonistic action against IDPN model (head movements)", "assay_type": "in vivo, Sprague-Dawley rats", "conditions": "1 mg/kg p.o.; IDPN 150 mg/kg i.p. for 6 days; counted during 30 minutes starting 30 minutes after dosing; mean ± standard error, 6 rats; control group 347 ± 14.4; p < 0.01", "description": "When […] (IDPN, Tokyo Kasei Kogyo K.K., Japan) is administered in rats, rapid reciprocation of horizontal and vertical head movements is induced. […] This is very similar to the abnormal movements accompanying disorders of extrapyramidal system of human, which is classified into the group with major symptom of rapid involuntary movement and muscle hypotonia. (Schneider, J. S., Exp. Neurol., 84, 524 - 532, 1984).\nIDPN (Tokyo Kasei Kogyo K.K., Japan) 150 mg/kg was administered to Sprague-Dawley rats (Charles River Inc., 7 weeks old) for 6 days intraperitoneally. Animals expressing horizontal and vertical head movements (at initiation of the experiment: 12 - 14 weeks old) within after 2 weeks of administration were used for dyskinesia model animals. The compound of the present invention (1 mg/kg) or distilled water (as a control group) was administered orally in rats. After 30 minutes, numbers of horizontal and vertical head movements neck during 30 minutes thereafter were counted. One reciprocation is counted as one motion."}, "red nucleus": {"tested_on": "red nucleus", "assay": "Effect on the firing rate in the red nucleus (electrophysiology, anesthetized rats)", "assay_type": "in vivo, Wistar rats", "conditions": "firing rate before administration = 100 %", "from_the_text": "The red nucleus belongs extrapyramidal system and have an important role for regulating motor function. Destruction of the red nucleus in rats was reported to enhance the catalepsy. (Kolasa. K. et al., Pharmacol. Biochem. Behav.,51, 29 - 35, 1995). As shown in Example 4 dystonia model, unilateral infusion of haloperidol into red nucleus of rats results to appear dystonia. As shown like this, the hypofunction of red nucleus have a close relation with the expression of abnormal movements accompanying disorders of extrapyramidal system. Namely, hypofunction of red nucleus is considered to lead to the abnormal movements accompanying disorder of extrapyramidal system. In this experiment, effect of the compound of the present invention on the haloperidol-induced decrease of firing rate in red nucleus was examined. […]\nElectric signals from the glass electrode were amplified with a micro electrode amplifier (MEZ-8301, Nihon Koden Co., Japan), filtered band path of 3 kHz - 50 Hz and humfilter and monitored on a oscilloscope (VC-11, Nihon Koden Co., Japan). […] Number of firing/10 seconds (firing rate) was calculated using pulse counter (MET-1100, Nihon Koden Co., Japan) and recorded by computer (Maclab ver. 3.5. Macintosh) with time dependent manner. […]"}, "[2]": {"tested_on": "haloperidol-induced catalepsy", "assay": "Preventive effect for catalepsy model, haloperidol-induced", "assay_type": "in vivo, Wistar rats", "conditions": "1 mg/kg p.o. 30 minutes before haloperidol 2 mg/kg i.p.; catalepsy observed 1 hour after haloperidol; shortening of catalepsy duration vs distilled water group; 10 rats", "description": "(§1) When a drug having dopamine receptor blocking activity is administered in rats, catalepsy induced. Catalepsy means a symptom of rats, which can not recovered by own intention, when rats are enforced unnatural posture, and it reflects abnormal movements consisting of mainly tremor, muscle rigidity and hypokinesia. (Hornykiewicz, O. Br. Med. Bull., 29, 172 - 178, 1973). […] (Schmidt, W.J. and Bubser, M., Pharmacol. Biochem. Behavior., 32, 621 - 623, 1988).\n(§2) The compound A hydrochloride, 1mg/kg, was administered orally into Wistar rats, male (Japan Charles River Inc.). After 30 minutes, haloperidol (Sigma Corp., U.S.A.), 2mg/kg, or risperidone, which was extracted from Risperdal (trade name, Janssen Corp.,UK) according to the method hereinbelow explained, 20 mg/kg were administered intraperitoneally. Catalepsy after 1 hour of administration of haloperidol or risperidone was observed. Catalepsy was observed by hanging rats in their forepaws on the iron bar, diameter 2 mm, set on the position of 12 cm high, and we measured the time maintaining this posture. Measurements were conducted maximum for 180 seconds. Experiments were conducted in a group of 10 rats for haloperidol induced catalepsy test and a group of 5 rats for risperidone induced catalepsy test. The mean duration of catalepsy in distilled water (vehicle of the compound in present invention)-administered group was defined as 100 %. […]"}, "[3]": {"tested_on": "risperidone-induced catalepsy", "assay": "Therapeutic effect against catalepsy model, risperidone-induced", "assay_type": "in vivo, Wistar rats", "conditions": "1 mg/kg p.o. given 75 minutes after risperidone 20 mg/kg i.p. to rats showing catalepsy; measured 105 minutes after compound; 5 to 6 rats", "description": "(§3) Therapeutic effects of the compound of the present invention on haloperidol or risperidone induced catalepsy were examined using Wistar rats, male (Charles River Inc., Canada).\nAfter further 15 minutes, the compound of the present invention or distilled water was administered orally. Therapeutic effect of the present compound against risperidone induced catalepsy was measured after 105 minutes of administration of the compound of the present invention.\n(§4) Catalepsy was observed by hanging rats in their forepaws on the iron bar, diameter 2 mm, set on the position of 12 cm high, and we measured the duration of catalepsy. Measurements were conducted maximum for 180 seconds. Experiments were conducted in a group of 10 rats for haloperidol-induced catalepsy test and a group of 5 to 6 rats for risperidone induced catalepsy test. The mean duration of catalepsy in distilled water (vehicle of the compound in present invention)-administered group was defined as 100 %. Suppressive rate was indicated as percent of the shortening on the duration of catalepsy in the compound-administered group comparing with the mean of that in distilled water administered group."}, "[4]": {"tested_on": "risperidone-induced catalepsy", "assay": "Preventive effect for catalepsy model, risperidone-induced", "assay_type": "in vivo, Wistar rats", "conditions": "1 mg/kg p.o. 30 minutes before risperidone 20 mg/kg i.p.; catalepsy observed 1 hour after risperidone; shortening of catalepsy duration vs distilled water group; 5 rats", "description": "as §1, §2"}, "[5]": {"tested_on": "haloperidol-induced catalepsy", "assay": "Therapeutic effect against catalepsy model, haloperidol-induced", "assay_type": "in vivo, Wistar rats", "conditions": "1 mg/kg p.o. given 45 minutes after haloperidol 2 mg/kg i.p. to rats showing catalepsy; measured 75 minutes after compound; 10 rats", "description": "as §3\nAfter further 15 minutes, the compound of the present invention or distilled water was administered orally. Therapeutic effect of the present compound against haloperidol induced catalepsy was measured after 75 minutes of administration of the compound of the present invention.\nas §4"}}, "note": "Where a name gives a salt, the structure may show the parent alone. Marks after values point to notes of the source that are not given here."}
{"smiles": "CC1(C)C2CC[C@]1(C)CN(CCC1C3CC4CC(C3)CC1C4)C2", "note": "(stereo partly drawn) [Compound A, (1S)-3-[2-(2-adamantyl)ethyl]-1,8,8-trimethyl-3-azabicyclo [3.2.1]-octane]", "values": [{"measurement": "torsional angle of head", "setting": "dystonia model", "value": "15.5 ± 1.3"}, {"measurement": "Numbers of oscillation of neck", "setting": "[1]", "value": "224.5 ± 24.4"}]}
{"smiles": "O=C(CCCN1CCC(O)(c2ccc(Cl)cc2)CC1)c1ccc(F)cc1", "note": "[haloperidol, reference compound]", "values": [{"measurement": "% Inhibitor of firing rate", "setting": "red nucleus; saline i.v. 1 - 3 minutes before haloperidol 0.2 mg/kg i.v.", "value": 60.1, "unit": "%"}]}
{"smiles": "CC1(C)C2CC[C@]1(C)CN(CCC1C3CC4CC(C3)CC1C4)C2", "note": "(stereo partly drawn) [Compound A hydrochloride, (1S)-3-[2-(2-adamantyl)ethyl]-1,8,8-trimethyl-3-azabicyclo [3.2.1]-octane]", "values": [{"measurement": "Suppressive rate (mg/kg, p.o.)", "setting": "[2]", "value": "77% (1)"}, {"measurement": "% Inhibitor of firing rate", "setting": "red nucleus; compound 0.1 µg/kg i.v. 1 - 3 minutes before haloperidol 0.2 mg/kg i.v., P<0.05", "value": 24.7, "unit": "%*"}, {"measurement": "Suppressive rate (mg/kg, p.o.)", "setting": "[3]", "value": "48% (1)"}, {"measurement": "Suppressive rate (mg/kg, p.o.)", "setting": "[4]", "value": "53% (1)"}, {"measurement": "Suppressive rate (mg/kg, p.o.)", "setting": "[5]", "value": "50% (1)"}]}
